According to patent publication US6518290B1, “Substituted oxazoles and thiazoles derivatives as HPPAr alpha activators” (priority 1999, dated 2003):

Columns and labels:
Format in all cases: cell-based
human PPAR delta = molecular target: T1, human PPAR delta (Homo sapiens, UniProt Q03181); assay: PPAR transient transfection (transactivation) assay in CV-1 cells, PPAR delta; settings: PPAR LBD-GAL4 chimera, SPAP reporter, 24 h with compound, read-out: human δEC50
T1 construct: expressed in transfected cells; host or cells: CV-1 cells
T1 sequence (Q03181 211-439 limits assumed): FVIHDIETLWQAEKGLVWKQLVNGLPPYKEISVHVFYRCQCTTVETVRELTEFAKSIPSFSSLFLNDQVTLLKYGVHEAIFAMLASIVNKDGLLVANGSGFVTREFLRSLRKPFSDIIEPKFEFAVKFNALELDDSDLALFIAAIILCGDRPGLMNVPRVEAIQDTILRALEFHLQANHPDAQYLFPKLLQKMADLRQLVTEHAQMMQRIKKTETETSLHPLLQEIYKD
Description: (§1) Compounds were screened for functional potency in transient transfection assays in CV-1 cells for their ability to activate the PPAR subtypes (transactivation assay). A previously established chimeric receptor system was utilized to allow comparison of the relative transcriptional activity of the receptor subtypes on the same target gene and to prevent endogenous receptor activation from complicating the interpretation of results. See, for example, Lehmann, J. M.; Moore, L. B.; Smith-Oliver, T. A.; Wilkison, W. O.; Willson, T. M.; Kliewer, S. A., An antidiabetic thiazolidinedione is a high affinity ligand for peroxisome proliferator-activated receptor γ (PPARγ), J. Biol. Chem., 1995, 270, 12953-6. The ligand binding domains for murine and human PPAR alpha, PPAR gamma, and PPAR delta were each fused to the yeast transcription factor GAL4 DNA binding domain. CV-1 cells were transiently transfected with expression vectors for the respective PPAR chimera along with a reporter construct containing five copies of the GAL4 DNA binding site driving expression of secreted placental alkaline phosphatase (SPAP) and β-galactosidase. After 16 h, the medium was exchanged to DME medium supplemented with 10% delipidated fetal calf serum and the test compound at the appropriate concentration. After an additional 24 h, cell extracts were prepared and assayed for alkaline phosphatase and β-galactosidase activity. Alkaline phosphatase activity was corrected for transfection efficiency using the β-galactosidase activity as an internal standard (see, for example, Kliewer, S. A., et. al. Cell 83, 813-819 (1995)). Rosiglitazone (BRL 49653) was used as a positive control in the hPPAR gamma assay. The positive control in the hPPAR alpha assays was 2-(2-methyl-3-[3-{3-(4-cyclohexylamino)-[6-(4-fluorophenylpiperazin-1-yl)][1,3,5]triazin-2-ylamino}propyl]phenylthio)-2-methylpropionic acid. The positive control for PPAR delta assays was 2-{2-methyl-4-[({4-methyl-2-{trifluoromethyl)phenyl]-1,3-thiazol-5-yl}methyl)sulfanyl]phenoxy}acetic acid.

human PPAR gamma = molecular target: T2, human PPAR gamma (Homo sapiens, UniProt P37231); assay: PPAR transient transfection (transactivation) assay in CV-1 cells, hPPAR gamma; settings: PPAR LBD-GAL4 chimera, SPAP reporter, 24 h with compound, read-out: human γEC50
T2 construct: expressed in transfected cells; host or cells: CV-1 cells
T2 sequence (P37231 238-503 limits assumed): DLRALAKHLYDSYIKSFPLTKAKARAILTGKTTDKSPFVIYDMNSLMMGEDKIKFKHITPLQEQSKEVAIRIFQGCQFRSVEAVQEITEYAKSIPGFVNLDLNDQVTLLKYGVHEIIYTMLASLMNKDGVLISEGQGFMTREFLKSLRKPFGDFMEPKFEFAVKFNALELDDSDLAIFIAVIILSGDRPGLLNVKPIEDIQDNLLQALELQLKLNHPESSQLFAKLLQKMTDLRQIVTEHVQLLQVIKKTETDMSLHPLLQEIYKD
Description: as §1

human PPAR alpha = molecular target: T3, human PPAR alpha (Homo sapiens, UniProt Q07869); assay: PPAR transient transfection (transactivation) assay in CV-1 cells, hPPAR alpha; settings: PPAR LBD-GAL4 chimera, SPAP reporter, 24 h with compound, read-out: human αEC50
T3 construct: expressed in transfected cells; host or cells: CV-1 cells
T3 sequence (Q07869 239-466 limits assumed): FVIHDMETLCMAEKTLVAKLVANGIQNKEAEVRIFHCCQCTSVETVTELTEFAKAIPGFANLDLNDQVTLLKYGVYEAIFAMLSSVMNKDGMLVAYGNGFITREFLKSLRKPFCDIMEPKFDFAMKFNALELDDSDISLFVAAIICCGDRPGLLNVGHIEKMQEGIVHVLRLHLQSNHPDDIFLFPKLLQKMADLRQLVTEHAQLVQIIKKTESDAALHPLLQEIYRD
Description: as §1, with “Alkaline phosphatase activity was corrected for transfection efficiency using the β-galactosidase activity as an internal standard (see, for example, Kliewer, S. A., et. al. Cell 83, 813-819 (1995)).” left out

| Compound | EC50 (human PPAR delta) | EC50 (human PPAR gamma) | EC50 (human PPAR alpha) |
| --- | --- | --- | --- |
| CCc1ccc(-c2nc(C)c(C(=O)NCc3ccc(OC(C)(C)C(=O)O)cc3)s2)cc1 [Example 27, 2-Methyl-2-[4-{[(4-methyl-2-[4-ethylphenyl]-thiazol-5-ylcarbonyl)amino]methyl}phenoxy]propionic Acid] | 4.08 µM | 8.82 µM | 0.002 µM |
| Cc1nc(-c2ccc(C(F)(F)F)cc2)sc1C(=O)N(C)Cc1ccc(OC(C)(C)C(=O)O)cc1 [Example 6, N-Methyl-2-methyl-2-[4-{[(4-methyl-2-[4-trifluoromethylphenyl]-thiazol-5-ylcarbonyl)amino]methyl}phenoxy]propionic Acid] | ≥ 10 µM | ≥ 10 µM | 0.23 µM |
| Cc1nc(-c2ccc(OC(F)(F)F)cc2)sc1C(=O)NCc1ccc(OC(C)(C)C(=O)O)cc1 [Example 35, 2-Methyl-2-[4-{[(4-methyl-2-[4-trifluoromethoxyphenyl]-thiazol-5-ylcarbonyl)amino]methyl}phenoxy]propionic Acid] | 4.59 µM | ≥ 10 µM | 0.004 µM |
| Cc1nc(-c2ccccc2)sc1C(=O)NCc1ccc(OC(C)(C)C(=O)O)cc1 [Example 29, 2-Methyl-2-[4-{[(4-methyl-2-phenylthiazol-5-ylcarbonyl)amino]methyl}phenoxy]propionic Acid] | ≥ 10 µM | ≥ 10 µM | 0.122 µM |
| Cc1nc(-c2ccc(Br)cc2)sc1C(=O)NCc1ccc(OC(C)(C)C(=O)O)cc1 [Example 25, 2-Methyl-2-[4-{[(4-methyl-2-[4-bromophenyl]-thiazol-5-ylcarbonyl)amino]methyl}phenoxy]propionic Acid] | 2.7 µM | ≥ 10 µM | 0.01 µM |
| Cc1nc(-c2ccc(C(F)(F)F)c(F)c2)sc1C(=O)NCc1ccc(OC(C)(C)C(=O)O)cc1 [Example 23, 2-Methyl-2-[4-{[(4-methyl-2-[3-fluoro-4-trifluoromethylphenyl]-thiazol-5-ylcarbonyl)amino]methyl}phenoxy]propionic Acid] | 9.19 µM | ≥ 10 µM | 0.007 µM |
| C#Cc1ccc(-c2nc(C)c(C(=O)NCc3ccc(OC(C)(C)C(=O)O)cc3)s2)cc1 [Example 39, 2-Methyl-2-[4-{[(4-methyl-2-[4-acetylenylphenyl]-thiazol-5-ylcarbonyl)amino]methyl}phenoxy]propionic Acid] | 2.48 µM | ≥ 10 µM | 0.036 µM |
| Cc1nc(-c2ccc(C(C)C)cc2)sc1C(=O)NCc1ccc(OC(C)(C)C(=O)O)cc1 [Example 15, 2-Methyl-2-[4-{[(4-methyl-2-[4-isopropylphenyl]-thiazol-5-ylcarbonyl)amino]methyl}phenoxy]propionic Acid] | 4.37 µM | 2.64 µM | 0.001 µM |
| Cc1nc(-c2ccc(Cl)c(Cl)c2)sc1C(=O)NCc1ccc(OC(C)(C)C(=O)O)cc1 [Example 21, 2-Methyl-2-[4-{[(4-methyl-2-[3,4-dichlorophenyl]-thiazol-5-ylcarbonyl)amino]methyl}phenoxy]propionic Acid] | ≥ 10 µM | ≥ 10 µM | 0.028 µM |
| CC(C)(Oc1ccc(CNC(=O)c2sc(-c3ccc(C(F)(F)F)cc3)nc2C(F)(F)F)cc1)C(=O)O [Example 41, 2-Methyl-2-[4-{[(4-trifluoromethyl-2-[4-trifluoromethylphenyl]-thiazol-5-ylcarbonyl)amino]methyl}phenoxy]propionic Acid] | ≥ 10 µM | 0.832 µM | 0.005 µM |
| CCOC(=O)C(C)(C)Oc1ccc(CNC(=O)c2sc(-c3ccc(C(F)(F)F)cc3)nc2C)cc1 [Example 1, 2-Methyl-2-[4-{[(4-methyl-2-[4-trifluoromethylphenyl]thiazol-5-ylcarbonyl)amino]methyl}phenoxy]propionic Acid Ethyl Ester] | ≥ 10 µM | ≥ 10 µM | 0.017 µM |
| Cc1nc(-c2ccc(Cl)cc2)sc1C(=O)NCc1ccc(OC(C)(C)C(=O)O)cc1 [Example 33, 2-Methyl-2-[4-{[(4-methyl-2-[4-chlorophenyl]-thiazol-5-ylcarbonyl)amino]methyl}phenoxy]propionic Acid] | 5.35 µM | ≥ 10 µM | 0.014 µM |
| Cc1nc(-c2ccc([N+](=O)[O-])cc2)sc1C(=O)NCc1ccc(OC(C)(C)C(=O)O)cc1 [Example 17, 2-Methyl-2-[4-{[(4-methyl-2-[4-nitrophenyl]-thiazol-5-ylcarbonyl)amino]methyl}phenoxy]propionic Acid] | ≥ 10 µM | ≥ 10 µM | 0.027 µM |
| Cc1nc(-c2ccc(C(F)(F)F)cc2)sc1C(=O)NCc1ccc(OC(C)(C)C(=O)O)cc1 [Example 2, 2-Methyl-2-[4-{[(4-methyl-2-[4-trifluoromethylphenyl]-thiazol-5-ylcarbonyl)amino]methyl}phenoxy]propionic Acid] | 2.95 µM | ≥ 10 µM | – |
| COc1ccc(-c2nc(C)c(C(=O)NCc3ccc(OC(C)(C)C(=O)O)cc3)s2)cc1 [Example 37, 2-Methyl-2-[4-{[(4-methyl-2-[4-methoxyphenyl]-thiazol-5-ylcarbonyl)amino]methyl}phenoxy]propionic Acid] | ≥ 10 µM | ≥ 10 µM | 0.02 µM |
| COc1cc(CNC(=O)c2sc(-c3ccc(C(F)(F)F)cc3)nc2C)ccc1OC(C)(C)C(=O)O [Example 49, 2-Methyl-2-[2-methoxy-4-{[(4-methyl-2-[4-trifluoromethylphenyl]-thiazol-5-ylcarbonyl)amino]methyl}phenoxy]propionic Acid] | 1 µM | ≥ 10 µM | 0.01 µM |
| Cc1nc(-c2ccc(C(F)(F)F)cc2)oc1C(=O)NCc1ccc(OC(C)(C)C(=O)O)cc1 [Example 45, 2-Methyl-2-[4-{[(4-methyl-2-[4-trifluoromethylphenyl]-oxazol-5-ylcarbonyl)amino]methyl}phenoxy]propionic Acid] | 1.64 µM | ≥ 10 µM | 0.4 µM |
| Cc1nc(-c2ccc(C(F)(F)F)cc2)sc1C(=O)NCCc1ccc(OC(C)(C)C(=O)O)cc1 [Example 10, 2-Methyl-2-[4-{[(4-methyl-2-[4-trifluoromethylphenyl]-thiazol-5-ylcarbonyl)amino]ethyl}phenoxy]propionic Acid] | ≥ 10 µM | ≥ 10 µM | 0.108 µM |
